Assay results taken from US8227515B2, “Use of hydroxamic acid derivatives for the preparation of anti-tumour medicaments” (Italfarmaco S.p.A., priority 2003, dated 2012).
Structures can show the parent of a compound that is named as a salt.

Columns and labels:
[1] = system: A549 (pulmonary carcinoma); test: Tritiated thymidine incorporation, tumour cell growth inhibition; format: cell-based; conditions: Homo sapiens, 48 hours with compound, read-out: IC50 (50% cell growth inhibition)
Experimental: (§1) The anti-tumour effect of the compound of example 12 of EP 901465, 4-[6-(diethylaminomethyl)naphth-2-ylmethyloxycarbamoyl)] benzohydroxamic acid hydrochloride (ITF 2357), was tested in vitro by measuring the capacity of the compound to inhibit the growth of tumour cell lines of different histotype deriving from both solid tumours and haematological tumours. The cell lines used were: A549 (pulmonary carcinoma), MDA-MB435 (breast carcinoma) and KG-1 (myeloid leukaemia).
(§2) A549 and MDA-MB435 cells (respectively grown in E-MEM and D-MEM culture medium, supplemented with 10% of fetal calf serum) were seeded on 96 wells-flat bottom-plates (5000 cells/well) and allowed to adhere for 4 hours at 37° C. under 5% CO2 atmosphere. Thereafter ITF 2357 at various doses was added to each well (4 replicates). […]
(§3) […] At the end the cells were collected by a cell harvester and the radioactivity contained in each sample which is directly proportionated to DNA synthesis and therefore to cell proliferation was measured by a liquid scintillation beta counter.
(§4) The effect of different doses of ITF 2357 was measured as percent of inhibition of radioactivity incorporation compared with untreated control cells. […]

[2] = system: MDA-MB435 (breast carcinoma); test: as above; format: cell-based; conditions: Homo sapiens, MDA-MB-435, 48 hours with compound, read-out: IC50 (50% cell growth inhibition)
Experimental: as §1, §2, §3, §4

[3] = system: murine melanoma B16-BL6; test: Growth of subcutaneous murine melanoma B16-BL6 in vivo; design: species or system mouse C57BL/6; conditions: female C57BL/6 mice, oral, daily 6 days a week
From the text: The anti-tumour effect of ITF 2357 was studied measuring the capacity of the compound to reduce the growth of the murine melanoma B16-BL6. B16-BL6 tumour is a highly metastatic variant (Sciumbata T. et al. Invasion and Metastasis 1996; 16: 132-143) of the native tumour B16 and it grows subcutaneously in the syngenic mouse C57BL/6 (Gutman M et al. Cancer Biother. 1994; 9(2): 163-170). B16-BL6 tumour cells were inoculated subcutaneously in female C57BL/6 mice (10 animals/group, weight 20-22 grams) at the dose of 2×10^5 cells/mouse. ITF 2357 dissolved in water was administered orally, at the indicated doses, 10 minutes before the inoculum of the tumour cells and then daily for 6 days a week. The tumour growth was expressed as tumour weight, measuring twice a week, by means of a calibre, the two perpendicular diameters of the nodules. The weight was calculated according to the formula: (diameter 1×diameter 2)^2/2 as described in Giavazzi R. et al. Cancer Res. 1986; 46: 1928-1933.

[4] = system: KG-1 (myeloid leukaemia); test: Tritiated thymidine incorporation, tumour cell growth inhibition; format: cell-based; conditions: 48 hours with compound, read-out: IC50 (50% cell growth inhibition)
Experimental: as §1
A liquid scintillation beta counter was used for measurement of the radioactivity contained in each sample, which is directly proportional to DNA synthesis and therefore to cell proliferation. KG-1 cells, grown in RPMI 1640 culture medium, supplemented with 5% fetal calf serum, were seeded in 96 wells-flat bottom-plates (250000 cells/well). ITF 2357 at various doses was immediately added and after 36 hours tritiated thymidine was added to each well (1 μCi/well) and left therein for the following 12 hours. At the end the cells were collected by a cell harvester and the radioactivity contained in each sample which is directly proportionated to DNA synthesis and therefore to cell proliferation was measured by a liquid scintillation beta counter.
as §4

[5] = system: Hep-2 (Head-neck); test: Sulforhodamine B viable cell assay, 72 hours; format: cell-based; conditions: Homo sapiens
Experimental: (§5) Cell lines derived from human solid tumours of different histotype and stabilised in vitro were used in the following experiment. In particular, three cell lines from head and neck tumours (KB, Ca127 and Hep2), two cell lines derived from colon carcinomas (HT-29 and LoVo) and four cell lines derived from melanomas (Colo38, Pes41, Pes43 and Anad) were studied.
(§6) The cells were grown according to conventional methods in flasks containing synthetic culture medium added with fetal serum, at 37° C. under 5% CO2 atmosphere, then seeded in 96 wells plates and allowed to adhere for some hours. ITF 2357 was added in triplicate at increasing doses to each well and the cells were incubated for further 72 hours. Viable cells were labelled by dyeing with sulforhodamine B and their amount was determined by spectrophotometric evaluation of the dye content in each well. The effect of ITF 2357 was calculated as percentage of inhibition, at each concentration, of the dye incorporation in wells containing ITF 2357 compared with control wells (cells without drug). IC50 values of ITF 2357 were calculated by Software Calcusyn (Biosoft) according to dose-response curves.

[6] = system: Colo38 (Melanoma); test: Sulforhodamine B viable cell assay, 72 hours; format: cell-based; conditions: Homo sapiens
Experimental: as §5, §6

[7] = system: KB (Head-neck); test: Sulforhodamine B viable cell assay, 72 hours; format: cell-based; conditions: Homo sapiens
Experimental: as §5, §6

[8] = system: Pes43 (Melanoma); test: Sulforhodamine B viable cell assay, 72 hours; format: cell-based; conditions: Homo sapiens
Experimental: as §5, §6

[9] = system: HT-29 (Colon carcinoma); test: Sulforhodamine B viable cell assay, 72 hours; format: cell-based; conditions: Homo sapiens
Experimental: as §5, §6

[10] = system: Pes41 (Melanoma); test: Sulforhodamine B viable cell assay, 72 hours; format: cell-based; conditions: Homo sapiens
Experimental: as §5, §6

[11] = system: Cal27 (Head-neck); test: Sulforhodamine B viable cell assay, 72 hours; format: cell-based; conditions: Homo sapiens, CAL-27
Experimental: as §5, §6

[12] = system: Anad (Melanoma); test: Sulforhodamine B viable cell assay, 72 hours; format: cell-based; conditions: Homo sapiens
Experimental: as §5, §6

[13] = system: LoVo (Colon carcinoma); test: Sulforhodamine B viable cell assay, 72 hours; format: cell-based; conditions: Homo sapiens
Experimental: as §5, §6

IC50 [1]: 495 nM
IC50 [2]: 73 nM
IC50 [4]: 552 nM
IC50 [6]: 2380 nM
IC50 [7]: 640 nM
IC50 [8]: 1400 nM
IC50 [9]: 700 nM
IC50 [10]: 1600 nM
IC50 [12]: 5.7 µM
IC50 [13]: 2500 nM
Structure (SMILES): CCN(CC)Cc1ccc2cc(COC(=O)Nc3ccc(C(=O)NO)cc3)ccc2c1 [ITF 2357, 4-[6-(diethylaminomethyl)naphth-2-ylmethyloxycarbamoyl)] benzohydroxamic acid hydrochloride]
effect on the tumour growth [3]: dose-dependent inhibitory effect
reduction of the volume of the tumoural nodule ([3]; after 15 days of treatment): about 50%
IC50 [5]: 1000 nM
IC50 [11]: 3.4 µM
